Measurements: patent publication US20240294545A1 (CSPC Zhongqi Pharmaceutical Technology (Shijiazhuang) Co., …, priority 2020, published 2024)
Where two headings read alike, the source gives them in different places. Marks after values point to notes of the source that are not given here. Each block holds one molecule with its values, some of them ahead of it.

Columns and labels:
[1] = system: subcutaneous xenograft tumor of human colon cancer cell line HT-29; test: HT-29 subcutaneous xenograft, combined with irinotecan liposome injection; assay type: in vivo, NU/NU mice; details: for inhibitory effect on tumor volume and tumor weight, in words: combined with irinotecan liposome injection, compared with AZD1390; for D 16 TGI / D 16 TV (MEAN ± SD) / Tumor weight / Tumor weight inhibitory rate: compound 25 mg/kg intragastric + irinotecan liposome 10 mg/kg ip; for D 16 TGI / D 16 TV (MEAN ± SD): day 16; for Tumor weight / Tumor weight inhibitory rate: end of test
Experimental: 7 Efficacy Test of the Compounds of the Present Disclosure Combined with Irinotecan Liposome Injection on Inhibiting the Growth of Subcutaneous Xenograft Tumor of Human Colon Cancer Cell Line HT-29
7.1 Experimental Animals: NU/NU Mice, SPF, Female, 20 to 30 g.
Irinotecan liposome injection (HE072), 43 mg: 10 mL, milky white liquid, batch No. B37191202, provided by Preparation Research Institute 2 from CSPC Zhongqi Pharmaceutical Technology (Shijiazhuang) Co., Ltd., diluted to an appropriate concentration with 5% glucose injection while testing.
HT-29 cell, provided by Nanjing Kebai Biotechnology Co., Ltd.; 5A culture medium:fetal bovine serum=90%:10%, 37° C., 5% CO2.
NU/NU nude mice were subcutaneously inoculated with HT-29 human colon cancer cells. When the mean tumor volume reached about 170 mm^3 (9 days after inoculation), the animals were evenly divided into groups according to the tumor volume (d0), with 6 mice in each group. 10 mg/kg of HE072 was administered intraperitoneally once a week for 1 time. Vehicle control, 25 mg/kg of A-6, 25 mg/kg of A-46, and 25 mg/kg of AZD1390 were administered intragastrically once a day, from Monday to Thursday every week except Friday to Sunday, for 1 week (4 times). The tumor volume was measured twice a week, the body weight of mouse was weighed every day, and the data were recorded. The tumor volume (TV) was calculated according to the formula: TV=½×a×b2, wherein a and b represent the long and short diameters of tumor, respectively. Tumor growth inhibitory rate TGI (%)=[1−(Ti−T0)/(Vi−V0)]×100, wherein Ti represents the mean tumor volume of a given treatment group on a certain day; TO represents the mean tumor volume of this treatment group at the beginning of administration; Vi represents the mean tumor volume of the vehicle control group on a certain day (the same day as that in Ti); V0 represents the mean tumor volume of the vehicle control group at the beginning of administration. At the end of the test (d17), the animals were sacrificed, the tumors were stripped and weighed, and the tumor weight inhibitory rates were calculated.

ATM = ATM (Homo sapiens (Human), UniProt Q13315); test: Caliper mobility shift assay for ATM; assay type: biochemical; details: read-out: IC50 of inhibitory activity on ATM kinase
Chain of ATM (Q13315 whole entry): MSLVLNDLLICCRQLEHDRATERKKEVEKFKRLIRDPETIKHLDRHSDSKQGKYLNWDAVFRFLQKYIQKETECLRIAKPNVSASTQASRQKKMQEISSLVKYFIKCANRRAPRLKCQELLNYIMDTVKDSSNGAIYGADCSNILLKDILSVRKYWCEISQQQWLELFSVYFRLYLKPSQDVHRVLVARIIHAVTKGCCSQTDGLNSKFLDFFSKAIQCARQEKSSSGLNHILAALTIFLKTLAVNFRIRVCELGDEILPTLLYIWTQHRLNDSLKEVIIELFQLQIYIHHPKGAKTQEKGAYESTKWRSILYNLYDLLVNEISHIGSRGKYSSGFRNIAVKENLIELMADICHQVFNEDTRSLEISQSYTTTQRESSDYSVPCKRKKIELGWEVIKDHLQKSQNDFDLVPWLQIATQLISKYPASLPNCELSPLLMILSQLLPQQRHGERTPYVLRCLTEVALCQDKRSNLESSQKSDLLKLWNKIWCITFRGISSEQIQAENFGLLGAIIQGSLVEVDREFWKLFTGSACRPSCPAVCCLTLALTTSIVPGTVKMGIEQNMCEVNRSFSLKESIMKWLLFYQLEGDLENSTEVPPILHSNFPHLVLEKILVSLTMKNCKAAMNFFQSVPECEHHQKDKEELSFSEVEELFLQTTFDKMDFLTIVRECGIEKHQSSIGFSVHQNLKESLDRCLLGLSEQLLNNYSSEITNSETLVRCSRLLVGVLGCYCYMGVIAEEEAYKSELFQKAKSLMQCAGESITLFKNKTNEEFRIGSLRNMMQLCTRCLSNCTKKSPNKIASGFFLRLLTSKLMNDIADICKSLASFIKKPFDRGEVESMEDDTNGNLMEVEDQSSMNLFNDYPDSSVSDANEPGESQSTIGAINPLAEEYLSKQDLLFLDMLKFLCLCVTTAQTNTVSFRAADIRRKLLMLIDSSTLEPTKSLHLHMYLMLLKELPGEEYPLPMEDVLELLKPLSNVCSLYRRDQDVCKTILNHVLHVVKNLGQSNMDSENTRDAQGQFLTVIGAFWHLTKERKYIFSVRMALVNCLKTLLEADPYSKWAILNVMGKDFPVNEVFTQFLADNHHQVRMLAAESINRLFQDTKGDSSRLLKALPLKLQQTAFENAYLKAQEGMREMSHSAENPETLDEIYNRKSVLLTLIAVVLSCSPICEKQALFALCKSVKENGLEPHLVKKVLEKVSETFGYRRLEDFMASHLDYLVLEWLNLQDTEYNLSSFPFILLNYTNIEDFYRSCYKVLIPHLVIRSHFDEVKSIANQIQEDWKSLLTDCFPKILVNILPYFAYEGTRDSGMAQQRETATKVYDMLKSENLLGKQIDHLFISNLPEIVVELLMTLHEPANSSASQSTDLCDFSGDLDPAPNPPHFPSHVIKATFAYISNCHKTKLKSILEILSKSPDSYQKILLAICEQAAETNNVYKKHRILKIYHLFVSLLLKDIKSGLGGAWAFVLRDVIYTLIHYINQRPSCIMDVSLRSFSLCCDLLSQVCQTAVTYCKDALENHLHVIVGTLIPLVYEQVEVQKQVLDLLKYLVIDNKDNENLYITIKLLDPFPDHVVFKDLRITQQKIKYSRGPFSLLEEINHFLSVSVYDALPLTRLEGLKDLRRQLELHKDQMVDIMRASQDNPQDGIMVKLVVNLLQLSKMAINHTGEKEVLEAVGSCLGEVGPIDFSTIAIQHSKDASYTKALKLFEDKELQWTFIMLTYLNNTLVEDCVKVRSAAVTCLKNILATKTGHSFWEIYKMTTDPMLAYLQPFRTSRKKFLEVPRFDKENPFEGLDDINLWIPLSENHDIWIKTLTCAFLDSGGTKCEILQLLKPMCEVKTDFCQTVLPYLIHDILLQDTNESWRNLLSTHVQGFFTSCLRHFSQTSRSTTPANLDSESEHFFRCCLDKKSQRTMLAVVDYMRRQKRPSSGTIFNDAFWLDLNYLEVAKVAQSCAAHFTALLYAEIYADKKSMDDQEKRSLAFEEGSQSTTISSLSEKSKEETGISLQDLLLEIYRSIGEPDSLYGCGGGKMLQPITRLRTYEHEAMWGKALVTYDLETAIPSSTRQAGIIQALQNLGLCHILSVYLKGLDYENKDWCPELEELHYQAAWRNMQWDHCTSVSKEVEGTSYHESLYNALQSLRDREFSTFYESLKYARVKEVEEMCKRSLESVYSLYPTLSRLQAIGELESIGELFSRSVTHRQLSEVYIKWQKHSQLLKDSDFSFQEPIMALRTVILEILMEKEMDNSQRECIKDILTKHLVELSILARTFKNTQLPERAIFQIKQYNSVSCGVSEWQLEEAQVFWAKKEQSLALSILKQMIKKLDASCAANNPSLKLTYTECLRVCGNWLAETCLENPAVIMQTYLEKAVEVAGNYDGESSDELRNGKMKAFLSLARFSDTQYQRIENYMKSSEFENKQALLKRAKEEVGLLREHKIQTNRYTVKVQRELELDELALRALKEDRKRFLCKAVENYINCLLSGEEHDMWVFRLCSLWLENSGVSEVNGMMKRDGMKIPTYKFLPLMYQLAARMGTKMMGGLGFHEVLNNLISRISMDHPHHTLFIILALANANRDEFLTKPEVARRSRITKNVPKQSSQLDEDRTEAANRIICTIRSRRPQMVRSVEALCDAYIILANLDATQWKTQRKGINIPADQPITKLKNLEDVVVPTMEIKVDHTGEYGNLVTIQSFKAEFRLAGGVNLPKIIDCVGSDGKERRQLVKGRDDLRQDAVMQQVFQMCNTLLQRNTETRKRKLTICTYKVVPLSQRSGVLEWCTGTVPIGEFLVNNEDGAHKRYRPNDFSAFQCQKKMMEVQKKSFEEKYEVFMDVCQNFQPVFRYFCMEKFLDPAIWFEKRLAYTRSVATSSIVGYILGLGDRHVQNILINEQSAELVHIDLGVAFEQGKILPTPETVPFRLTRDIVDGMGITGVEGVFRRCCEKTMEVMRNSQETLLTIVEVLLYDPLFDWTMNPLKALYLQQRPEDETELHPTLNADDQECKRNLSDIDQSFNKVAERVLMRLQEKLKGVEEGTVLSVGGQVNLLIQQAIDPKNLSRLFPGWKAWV
Experimental: 1.2 Determination of the Inhibitory Activities of Compounds on ATM: Caliper Mobility Shift Assay for ATM
To a 96-well plate, 98 μL of DMSO and 2 μL of the 10 mM stock solution were added and mixed evenly so that the concentration of the solution was 200 μM.
Based on the inhibitory rates of the compound at different concentrations, IC50 was calculated according to the formula: Y=Bottom+(Top−Bottom)/(1+(IC50/X)^HillSlope).

[2] = system: subcutaneous xenograft tumor of human glioblastoma LN-18; test: LN-18 subcutaneous xenograft, combined with radiotherapy; assay type: in vivo, NOG mice; details: day 17
Experimental: 9 Efficacy Test of the Compounds of the Present Disclosure Combined with Radiotherapy on Inhibiting the Growth of Subcutaneous Xenograft Tumor of Human Glioblastoma LN-18
9.1 Experimental Animals: NOG Mice, SPF, Female, 18 to 22 g.
LN-18 tumor cells, DMEM medium:fetal bovine serum=95%:5%, accompanied by adding 100 U/mL penicillin and 100 μg/mL streptomycin, 37° C., 5% CO2.
LN18 tumor cells resuspended in serum-free DMEM medium were inoculated subcutaneously in the right costal region of experimental animals at 1.5*10^7/0.15 mL, and the animals were grouped when the tumor grew to 100 to 150 mm^3. Radiotherapy was performed 1 h after administration of compounds.
Tumor volume: The tumor volume was measured twice a week with a vernier caliper, and the long diameter and short diameter of tumor were measured. The tumor volume was calculated as follows: tumor volume (TV)=0.5×long diameter×short diameter^2. Tumor growth inhibitory rate (TGI %) was calculated according to the tumor volume. TVXn represents the mean tumor volume on day n of the treatment group, TVX0 represents the mean tumor volume on day 0 of the treatment group, TVMn represents the mean tumor volume on day n of the control group, and TVM0 represents the mean tumor volume on day 0 of the control group.

ATM-phosphorylated KAP1 = test: Intracellular ATM-phosphorylated KAP1 level, ICW assay in MCF7 cells; assay type: cell-based, Human; details: MCF7 cells, 2 h compound, 10 Gy irradiation, further 1 h, read-out: pKAP1 IC50
Experimental: 4 Inhibition on Intracellular ATM-Phosphorylated KAP1 Level by the Compounds of the Present Disclosure: ICW Assay
• Cell: Human breast cancer cell line MCF7 • Materials and reagents:
4.2 Experimental Procedures
• (1) Cell inoculation • MCF7 cells were inoculated on a 384-well plate, 10000 cells/well (25 μL/well), and cultured overnight at 37° C. with 5% CO2. • (2) Activity detection • 1) The compound was formulated into a 100 mM solution with DMSO and then sequentially diluted with a gradient of 1:3 to yield a total of 10 concentration gradients, wherein the maximum concentration was 100 μM. • 2) 25 nL of each of the compound solutions with gradient concentrations prepared in step 1) was added to each well of the cell plate (Corning #356663) by using I-DOT One, resulting in a final concentration of 100 nM (maximum dose). • 3) The cell plate containing compound was incubated at 37° C. with 5% CO2 for 2 h. After 2 h, the cell plate was irradiated with a dose of 10 Gy, and then further incubated for 1 h. • 4) 25 μL of 8% paraformaldehyde was added to each well, followed by incubating at room temperature for 20 min. • 5) The 8% paraformaldehyde was discarded, followed by adding 0.1% TrintonX-100 and incubating at room temperature for 30 min. • 6) Odessey blocking buffer was added at 50 μL/well, followed by incubating at room temperature for 1.5 h. • 7) The Odessey blocking buffer was discarded, and then a primary antibody (Phospho-KAP1, 1:2000 dilution) was added, followed by incubating overnight at 4° C. • 8) The primary antibody was removed, followed by washing with PBS+0.1% Tween 20 for 5 times. • 9) DNA dye DRAQ5 coated with a second antibody (IRDye 800CW Goat anti-Rabbit, 1:4000 dilution) was added, followed by incubating at room temperature for 1 h. • 10) The second antibody was removed, followed by washing with PBS+0.1% Tween 20 for 5 times. • 11) PBS+0.1% Tween 20 was sucked off with Odyssey. • (3) Data analysis • 1) the relative ratio of Channel 800/Channel 700 for each well was detected. • 2) % of KAP1 phosphorylation was calculated according to the following formula:
% of KAP1 phosphorylation=[(Ratiocmpd−(Ratio)Positive)/((Ratio)Vehicle−(Ratio)Positive]*100 • (Ratio)Positive: the mean value of the test values of each positive control well in the test cell plate; • (Ratio)Vehicle: the mean value of the test values of each negative control well in the test cell plate. • 3) the IC50 of each compound was calculated and the dose-effect curve was plotted: % of KAP1 phosphorylation and log of compound's concentration were fit by using Graphpad 8.0 so as to calculate the IC50.
[formula] • X: log of compound's concentration • Y: % of KAP1 phosphorylation

[3] = compound 10 mg/kg intragastric qd × 5 + IR 1 Gy
[4] = compound 20 mg/kg intragastric qd × 5 + IR 1 Gy

SMILES: Cn1c(=O)n2c3c4c(c(-c5ccc(OCCCN6CCCCC6)nc5)c(F)cc4ncc31)OCC2(C)C [Example A-6, 6-fluoro-2,10,10-trimethyl-7-(6-(3-(piperidin-1-yl)propoxy)pyridin-3-yl)-9,10-dihydro-8-oxa-2,4,10a-triazanaphtho[2,1,8-cde]azulen-1(2H)-one]
- inhibitory effect on tumor volume and tumor weight, in words [1]: higher than those of AZD1390
- D 16 TGI [1]: 100.4%
- D 16 TV (MEAN ± SD) [1]: 163.8 ± 62.8***^### mm^3
- Tumor weight [1]: 0.12 ± 0.03 g
- Tumor weight inhibitory rate [1]: 82.4%
- IC50 (ATM): 0.37 nM

SMILES: CN(C)CCCOc1ccc(-c2c(F)cc3ncc4c5c3c2OCC(C)(C)n5c(=O)n4C)cn1 [Example A-46, 7-(6-(3-(dimethylamino)propoxy)pyridin-3-yl)-6-fluoro-2,10,10-trimethyl-9,10-dihydro-8-oxa-2,4,10a-triazanaphtho[2,1,8-cde]azulen-1(2H)-one]
- inhibitory effect on tumor volume and tumor weight, in words [1]: higher than those of AZD1390
- D 16 TGI [1]: 102.2%
- D 16 TV (MEAN ± SD) [1]: 149.5 ± 67.4***^### mm^3
- Tumor weight [1]: 0.12 ± 0.06 g
- Tumor weight inhibitory rate [1]: 82.0%
- IC50 (ATM): 0.52 nM

SMILES: CC[C@H]1COc2c(-c3ccc(OCCCN(C)C)nc3)ccc3ncc4c(c23)n1c(=O)n4C [Example A-189, (S)-7-(6-(3-(dimethylamino)propoxy)pyridin-3-yl)-10-ethyl-2-methyl-9,10-dihydro-8-oxa-2,4,10a-triazanaphtho[2,1,8-cde]azulen-1(2H)-one]
- IC50 (ATM): 0.38 nM

SMILES: C[C@@H]1CNc2c(-c3ccc(OCCCN4CCCCC4)nc3)c(F)cc3ncc4c(c23)n1c(=O)n4C [Example A-195, (R)-6-fluoro-2,10-dimethyl-7-(6-(3-(piperidin-1-yl)propoxy)pyridin-3-yl)-2,8,9,10-tetrahydro-1H-2,4,8,10a-tetraazanaphtho[2,1,8-cde]azulen-1(2H)-one]
- IC50 (ATM): 0.41 nM

SMILES: CC[C@H]1CNc2c(-c3ccc(OCCCN4CCCCC4)nc3)c(F)cc3ncc4c(c23)n1c(=O)n4C [Example A-196, (S)-10-ethyl-6-fluoro-2-methyl-7-(6-(3-(piperidin-1-yl)propoxy)pyridin-3-yl)-2,8,9,10-tetrahydro-1H-2,4,8,10a-tetraazanaphtho[2,1,8-cde]azulen-1(2H)-one]
- IC50 (ATM): 0.51 nM

SMILES: C[C@@H]1CNc2c(-c3ccc(OCCCN4CCCCC4)nc3)ccc3ncc4c(c23)n1c(=O)n4C [Example A-199, (R)-2,10-dimethyl-7-(6-(3-(piperidin-1-yl)propoxy)pyridin-3-yl)-2,8,9,10-tetrahydro-1H-2,4,8,10a-tetraazanaphtho[2,1,8-cde]azulen-1(2H)-one]
- IC50 (ATM-phosphorylated KAP1): 0.78 nM
- IC50 (ATM): 0.92 nM

SMILES: C[C@H]1COc2c(-c3ccc(OCCCN4CCC(C)(C)CC4)nc3)ccc3ncc4c(c23)n1c(=O)n4C [Example A-207, (S)-7-(6-(3-(4,4-dimethylpiperidin-1-yl)propoxy)pyridin-3-yl)-2,10-dimethyl-9,10-dihydro-8-oxa-2,4,10a-triazanaphtho[2,1,8-cde]azulen-1(2H)-one]
- IC50 (ATM): 0.44 nM

Now from value to molecule, other results behind:

- IC50 (ATM): 0.69 nM
SMILES: C[C@H]1CNc2c(-c3ccc(OCCCN4CCCCC4)nc3)c(F)cc3ncc4c(c23)n1c(=O)n4C [Example A-191, (S)-6-fluoro-2,10-dimethyl-7-(6-(3-(piperidin-1-yl)propoxy)pyridin-3-yl)-2,8,9,10-tetrahydro-1H-2,4,8,10a-tetraazanaphtho[2,1,8-cde]azulen-1(2H)-one]
- D 17 TGI [2, 3]: 76.9%
- D 17 TV (MEAN ± SD) [2, 3]: 347 ± 64***^ mm^3

- IC50 (ATM-phosphorylated KAP1; Homo sapiens, light or radiation study): 1.44 nM
- IC50 (ATM): 0.53 nM
SMILES: Cn1c(=O)n2c3c4c(c(-c5ccc(OCCCN6CCCCC6)nc5)c(F)cc4ncc31)NCC21CCC1 [Example A-192, 6-fluoro-2-methyl-7-(6-(3-(piperidin-1-yl)propoxy)pyridin-3-yl)-8,9-dihydrospiro[2,4,8,10a-tetraazanaphtho[2,1,8-cde]azulene-10,1′-cyclobutan]-1(2H)-one]
- D 17 TGI [2, 4]: 79.6%
- D 17 TV (MEAN ± SD) [2, 4]: 323 ± 114***^# mm^3

- IC50 (ATM): 0.23 nM
SMILES: Cn1c(=O)n2c3c4c(c(-c5ccc(OCCCN6CCCCC6)nc5)ccc4ncc31)NCC21CCC1 [Example A-202, 2-methyl-7-(6-(3-(piperidin-1-yl)propoxy)pyridin-3-yl)-8,9-dihydrospiro[2,4,8,10a-tetraazanaphtho[2,1,8-cde]azulene-10,1′-cyclobutan]-1(2H)-one]

- IC50 (ATM): 0.29 nM
SMILES: CC1CCN(CCCOc2ccc(-c3ccc4ncc5c6c4c3OC[C@H](C)n6c(=O)n5C)cn2)CC1 [Example A-208, (S)-2,10-dimethyl-7-(6-(3-(4-methylpiperidin-1-yl)propoxy)pyridin-3-yl)-9,10-dihydro-8-oxa-2,4,10a-triazanaphtho[2,1,8-cde]azulen-1(2H)-one]
